According to patent US20230203485A1, “METHODS FOR MODULATING MHC-I EXPRESSION AND IMMUNOTHERAPY USES THEREOF” (Dana-Farber Cancer Institute, Inc., priority 2020, published 2023):

Assays:
[1] = system: surface HLA class I; assay: USP7 inhibitor treatment of MCC lines, surface HLA-I by flow cytometry; type: cell-based, human; conditions: 3 days
[2] = system: surface HLA-I; assay: USP7 inhibitor treatment of MKL-1 p53-WT control and p53-KO lines, surface HLA I by flow cytometry; type: cell-based, human
Experimental: For MCC-301 USP7 inhibitor experiments, two and a half million MCC cells were plated in a T25 flask and incubated with the USP7 inhibitor XL177A and control enantiomer XL177B at 10 μM, 1 μM, 100 nM, and 10 nM. Cells were incubated for 3 to 4 days. Post incubation, one million cells were treated with Versene (Gibco) to dissociate cell clusters. Surface Fc receptors were blocked with 5 μL Human TruStain FcX (Biolegend #422302). Surface HLA-I was stained with 5 μL of Pan HLA-Class I antibody (Clone W6/32, Santa Cruz Biotechnologies) for 30 minutes in dark at 4° C. Cells were washed with PBS and fixed with 4% paraformaldehyde fixation buffer (Biolegend). Cells were analyzed on a BD LSRFortessa. MCC-301 data are representative of 4 independent experiments. To perform statistical analysis, for each cell line, one-way ANOVA was first performed on the MFIs of the DMSO group and all experimental groups. Then, individual Welch t-tests were performed for each concentration, comparing the fold-changes of MFI (inhibitor)/mean MFI (DMSO control) between XL177A and XL177B.
For MKL-1 USP7 inhibitor experiments, p53-WT control lines (WT, scrambled, AAVS1) and three p53-KO lines were treated with USP7 inhibitors and assessed by flow cytometry for surface HLA I as described above for MCC-301.

[3] = system: HLA-I-bound peptidomes of MCC-301 cells; assay: HLA-I-bound immunopeptidome of USP7 inhibitor treated MCC-301 cells (TMT LC-MS/MS); type: cell-based, human
Experimental: Up to 40 million or 0.2 g of MCC cells were immunoprecipitated. Briefly, MCC cells were harvested and lysed in ice-cold lysis buffer containing […] (pH 8.0), 1 mM EDTA (pH 8.0), 0.1M sodium chloride, Triton X-100, 0.06M octyl β-d-glucopyranoside, 100 U/mL DNAse I, 1 mM phenylmethanesulfonyl fluoride (all from Sigma Aldrich), and protease inhibitor cocktail (Roche Diagnostics). Cell lysate was centrifuged at 12,700 rpm at 4° C. for 22 min. Lysate supernatant was coupled with Gammabind Plus sepharose beads (GE Healthcare) and incubated with 10 μg of HLA-I antibody (Clone W6/32, Santa Cruz Biotechnologies) at 4° C. under rotary agitation for 3 h. After incubation, the lysate-bead-antibody mixture was briefly centrifuged and the supernatant was discarded. Beads were washed with lysis buffer, consisting of wash buffer containing 40 mM Tris (pH 8.0), 1 mM EDTA (pH 8.0), 0.1M sodium chloride, 0.06M octyl β-d-glucopyranoside, and 20 mM Tris buffer, without protease inhibitors. Gel loading tips (Fisherbrand) were used to remove as much fluid from beads as possible. Peptides of up to three immunoprecipitations were combined, acid eluted, and analyzed using LC/MS-MS. Briefly, peptides were resuspended in 3% acetonitrile with 5% formic acid and loaded onto an analytical column (20-30 cm with 1.9 μm C18 Reprosil beads, Dr. Maisch HPLC GmbH); packed in-house). Peptides were eluted in a 6-30% gradient (EasyLC 1000 or 1200, Thermo Fisher Scientific) and analyzed on a QExactive Plus, Fusion Lumos, or Orbitrap Exploris 480 (Thermo Fisher Scientific). For Lumos measurements, peptides were also subjected to fragmentation if they were singly charged. For Orbitrap Exploris measurements (2 immunoprecipitations pooled, +/−IFN-γ, FIG. 3) and detection of the large T antigen peptide (3 immunoprecipitations of the MCC-367 cell line treated with IFN-γ) peptides were further fractionated using stage tip basic reverse phase separation with 2 punches of SDB-XC material (Empore 3M) and increasing concentrations of acetonitrile (5%, 10% and 30% in 0.1% NH4OH, pH 10). Fractions were analyzed on a Fusion Lumos or Orbitrap Exploris 480 equipped with a FAIMSpro interface. […]
Mass spectra were interpreted using Spectrum Mill software package v7.1 pre-Release (Broad Institute, Cambridge, Mass.). […] MS/MS spectra were searched against a protein sequence database that contained 90,904 entries, including all UCSC Genome Browser genes with hg19 annotation of the genome and its protein coding transcripts (52,788 entries), common human virus sequences (30,181 entries), recurrently mutated proteins observed in tumors from 26 tissues (4,595 entries), 264 common laboratory contaminants as well as protein sequences containing somatic mutations detected in MCC cell lines (3,076 entries). […]

[4] = system: MKL-1 control or p53 KO cells; assay: Cell cycle analysis (EdU/DAPI flow cytometry); type: cell-based, human; conditions: MKL-1 TP53-WT and TP53-KO, 100 nM, three days
Experimental: 1 million MKL-1 control or p53 KO cells were plated and treated with DMSO, XL177A (100 nM) or XL177B (100 nM) for three days. During the last hour of the three-day treatment, the cells were pulsed with 10 μM EdU nucleotide. The cells were collected by centrifugation, treated with Accutase™ (Stem Cell Technologies) to break apart clumps, washed with PBS and fixed using 4% Formaldehyde solution in PBS at Room temperature for 15 mins. Cells were washed with 1% BSA in PBS and resuspended in 70% ice cold ethanol and incubated at −20° C. overnight for additional fixing and permeabilization. The cells were stored in 70% ethanol at −20° C. until the day the data was acquired. On the day of data acquisition, the cells were collected by centrifugation and washed twice with PBS. The incorporated EdU in the cells were labeled with a CLICK reaction cocktail (1 mM CuSO4, 100 μM THPTA, 100 mM sodium ascorbate, and 2.2 μM Alexa 647 azide in PBS) at room temperature with rocking for 30 minutes. The samples were then washed with 1% BSA in PBS once followed by two washes with PBS and incubated with a 1 μg/ml DAPI, 100 ng/ml RNase A solution for one hour at Room temperature to stain the DNA. The samples were then passed through strainer tubes and analyzed using a BD Fortessa analyzer. The flow cytometry data was analyzed using the FlowJo Software. […]

[5] = target: USP7 (Homo sapiens, UniProt Q93009); conditions: enantiomer control vs XL177A; cited from earlier work
USP7, sequence (Q93009 whole entry): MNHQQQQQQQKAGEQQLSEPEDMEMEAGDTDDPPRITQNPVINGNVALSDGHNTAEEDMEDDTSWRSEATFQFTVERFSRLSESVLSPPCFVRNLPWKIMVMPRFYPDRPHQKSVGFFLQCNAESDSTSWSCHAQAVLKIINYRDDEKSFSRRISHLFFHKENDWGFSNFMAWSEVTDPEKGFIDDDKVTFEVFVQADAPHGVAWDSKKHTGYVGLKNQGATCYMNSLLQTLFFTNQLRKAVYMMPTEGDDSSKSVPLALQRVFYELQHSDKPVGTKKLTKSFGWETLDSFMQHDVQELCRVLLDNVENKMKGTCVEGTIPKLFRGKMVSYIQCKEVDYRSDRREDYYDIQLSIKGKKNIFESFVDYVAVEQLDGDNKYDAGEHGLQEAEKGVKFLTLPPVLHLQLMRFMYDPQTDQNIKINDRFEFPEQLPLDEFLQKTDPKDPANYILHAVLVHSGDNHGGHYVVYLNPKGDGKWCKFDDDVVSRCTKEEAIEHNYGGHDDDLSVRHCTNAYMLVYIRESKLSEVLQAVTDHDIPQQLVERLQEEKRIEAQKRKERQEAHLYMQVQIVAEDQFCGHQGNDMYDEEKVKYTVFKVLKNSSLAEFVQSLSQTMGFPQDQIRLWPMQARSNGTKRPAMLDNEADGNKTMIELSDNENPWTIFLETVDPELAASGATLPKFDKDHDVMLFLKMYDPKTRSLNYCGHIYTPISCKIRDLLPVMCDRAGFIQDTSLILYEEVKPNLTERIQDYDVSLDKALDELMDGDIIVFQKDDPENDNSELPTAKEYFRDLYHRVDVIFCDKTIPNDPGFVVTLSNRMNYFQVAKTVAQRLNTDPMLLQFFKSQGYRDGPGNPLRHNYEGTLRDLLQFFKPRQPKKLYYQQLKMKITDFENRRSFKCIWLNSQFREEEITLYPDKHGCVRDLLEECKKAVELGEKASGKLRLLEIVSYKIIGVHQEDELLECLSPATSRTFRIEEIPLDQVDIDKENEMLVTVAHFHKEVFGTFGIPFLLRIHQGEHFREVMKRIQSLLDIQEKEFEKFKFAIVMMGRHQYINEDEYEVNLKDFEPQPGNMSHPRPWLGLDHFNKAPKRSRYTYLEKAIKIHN

[6] = system: autologous T cells; assay: IFN-γ ELISpot with patient MCC-367 PBMCs; type: cell-based, human; conditions: 10 μg/ml peptide
Experimental: Matching patient peripheral blood mononuclear cells (PBMCs) from patient MCC-367 were thawed, and 10^7 cells per well were seeded in 24 well plates overnight. Cells were stimulated with 10 μg/ml of the LT antigen peptide […] (identified in the MCC-367 HLA peptidome, FIG. 3F) in complete DMEM supplemented with 10% Human serum and 20 ng/ml IL-7 (PeproTech). After 3 days of stimulation, cells were supplemented with 20 units/mL IL-2 (PeproTech). After 10 days of stimulation, cells were cytokine deprived overnight. 50,000 cells per well were stimulated in an IFN-γ ELISpot assay with 10 μg/ml of the […] peptide. DMSO and an HIV-GAG peptide were used as negative controls. CEF (Mabtech) and PHA (Sigma Aldrich) were used as positive controls (not shown). ELISpot and T cell culture methods were described in detail previously.

[7] = 100 nM, three lines (MCC-277, -290, -301)
[8] = 100 nM, two MCPyV+ lines (MCC-301 and -277)

## CN1CCN(CCC(=O)Nc2ccc3c(=O)n(CC4(O)CCN(C(=O)[C@@H](CCCNC(=O)c5ccc6c(Cl)c7c(nc6c5)CCCC7)Cc5ccccc5)CC4)cnc3c2)CC1 [XL177A]
[1]; [7]
  mean fold increase in expression of surface HLA class I relative to DMSO: 1.89 fold
  range of fold increase in expression of surface HLA class I relative to DMSO: 1.60-2.27 fold
[1]; [8]
  mean fold increase in expression of surface HLA-I relative to DMSO: 2.0 fold
  range of fold increase in expression of surface HLA-I relative to DMSO: 1.78-2.27 fold
[1]; MCC-290 (MCPyV−)
  increase in HLA-I levels in MCC-290: more modest increase
[1]; MCC-320 (MCPyV−)
  increase in HLA I expression in MCC-320: did not exhibit a statistically significant increase and not
[2]; MKL-1 TP53-KO lines
  surface HLA-I relative to XL177B and DMSO: increased
[2]; MKL-1 TP53-WT lines
  surface HLA-I relative to XL177B and DMSO: increased
[3]
  abundance of displayed HLA-I peptides compared to XL177B and untreated cells: higher abundances of displayed peptides
  frequency of peptides displayed on each respective HLA-I gene (HLA-A, -B, -C): did not affect
[3]; out of 282 peptides
  percent of significantly differing peptides more abundant compared to untreated cells: 95.7%
[3]; out of 282 peptides whose abundance significantly differed (P<0.05)
  number of peptides more abundant compared to untreated cells: 270 peptides
[4]
  cell cycle shift: slight cell cycle shifts from S to G1 phase

## CN1CCN(CCC(=O)Nc2ccc3c(=O)n(CC4(O)CCN(C(=O)[C@H](CCCNC(=O)c5ccc6c(Cl)c7c(nc6c5)CCCC7)Cc5ccccc5)CC4)cnc3c2)CC1 [XL177B]
[5]
  potency relative to XL177A (fold less potent): 500 fold

## TSDKAIELY [peptide derived from the OBD domain of MCPyV LT, detected in the MCC-367 HLA peptidome]
[6]
  reactivity of autologous T cells by ELISpot: confirmed
